Measurements published in patent US20210403435A1, “HERBICIDAL COMPOUNDS” (SYNGENTA CROP PROTECTION AG, priority 2018, published 2021).

What was measured:
Assay in all cases: Post-emergence efficacy, glasshouse, evaluated after 13 days
Assay type in all cases: in vivo
[1] = system: Amaranthus palmeri (AMAPA); conditions: Amaranthus palmeri, 312 h; post-emergence application, 500 g/Ha, evaluated after 13 days; read-out: Control of weed species AMAPA (100=total damage to plant; 0=no damage to plant)
Summary of the method: (§1)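 Injury assessed 13 days after a post-emergence spray, 0 = no damage and 100 = total damage. Spray liquid: compound in acetone/IF50 (Emulsogen EL360, N-methylpyrrolidone, Dowanol DPM), diluted with 0.25% or 1% sodium lauryl ether sulphate plus 1% ammonium sulphate.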

[2] = system: Digitaria sanguinalis (DIGSA); conditions: Digitaria sanguinalis, 312 h; post-emergence application, 500 g/Ha, evaluated after 13 days; read-out: Control of weed species DIGSA (100=total damage to plant; 0=no damage to plant)
Summary of the method: as §1

Lolium perenne (LOLPE) = conditions: Lolium perenne, 312 h; post-emergence application, 500 g/Ha, evaluated after 13 days; read-out: Control of weed species LOLPE (100=total damage to plant; 0=no damage to plant)
Summary of the method: as §1

[3] = system: Euphorbia heterophylla (EPHHL); conditions: Euphorbia heterophylla, 312 h; post-emergence application, 500 g/Ha, evaluated after 13 days; read-out: Control of weed species EPHHL (100=total damage to plant; 0=no damage to plant)
Summary of the method: as §1

Setaria faberi (SETFA) = conditions: Setaria faberi, 312 h; post-emergence application, 500 g/Ha, evaluated after 13 days; read-out: Control of weed species SETFA (100=total damage to plant; 0=no damage to plant)
Summary of the method: as §1

Eleusine indica (ELEIN) = conditions: Eleusine indica, 312 h; post-emergence application, 500 g/Ha, evaluated after 13 days; read-out: Control of weed species ELEIN (100=total damage to plant; 0=no damage to plant)
Summary of the method: as §1

[4] = system: Echinochloa crus-galli (ECHCG); conditions: Echinochloa crus-galli, 312 h; post-emergence application, 500 g/Ha, evaluated after 13 days; read-out: Control of weed species ECHCG (100=total damage to plant; 0=no damage to plant)
Summary of the method: as §1

[5] = system: Chenopodium album (CHEAL); conditions: Chenopodium album, 312 h; post-emergence application, 500 g/Ha, evaluated after 13 days; read-out: Control of weed species CHEAL (100=total damage to plant; 0=no damage to plant)
Summary of the method: as §1

[6] = system: Ipomoea hederacea (IPOHE); conditions: Ipomoea hederacea, 312 h; post-emergence application, 500 g/Ha, evaluated after 13 days; read-out: Control of weed species IPOHE (100=total damage to plant; 0=no damage to plant)
Summary of the method: as §1

CCNC(=O)c1cc[n+](CC[C@H](N)C(=O)O)nc1 [Compound A91, [(1S)-1-carboxy-3-[4-(ethylcarbamoyl)pyridazin-1-ium-1-yl]propyl]ammonium dichloride]
pest or weed control at 500 g/ha [1]: 70% | pest or weed control at 500 g/ha [2]: 60% | pest or weed control at 500 g/ha (Lolium perenne (LOLPE)): 60% | pest or weed control at 500 g/ha [3]: 20% | pest or weed control at 500 g/ha (Setaria faberi (SETFA)): 70% | pest or weed control at 500 g/ha (Eleusine indica (ELEIN)): 70% | pest or weed control at 500 g/ha [4]: 0% | pest or weed control at 500 g/ha [5]: 50% | pest or weed control at 500 g/ha [6]: 30%

CC1(NC(=O)c2cc[n+](CCC(=O)O)nc2)CC1 [Compound A92]
pest or weed control at 500 g/ha [1]: 100% | pest or weed control at 500 g/ha [2]: 100% | pest or weed control at 500 g/ha (Lolium perenne (LOLPE)): 90% | pest or weed control at 500 g/ha [3]: 100% | pest or weed control at 500 g/ha (Setaria faberi (SETFA)): 100% | pest or weed control at 500 g/ha (Eleusine indica (ELEIN)): 90% | pest or weed control at 500 g/ha [4]: 80% | pest or weed control at 500 g/ha [5]: 100% | pest or weed control at 500 g/ha [6]: 50%

O=C(O)CC[n+]1ccc(C(=O)NC2(C(F)(F)F)CC2)cn1 [Compound A94]
pest or weed control at 500 g/ha [1]: 100% | pest or weed control at 500 g/ha [2]: 90% | pest or weed control at 500 g/ha (Lolium perenne (LOLPE)): 80% | pest or weed control at 500 g/ha [3]: 90% | pest or weed control at 500 g/ha (Setaria faberi (SETFA)): 90% | pest or weed control at 500 g/ha (Eleusine indica (ELEIN)): 100% | pest or weed control at 500 g/ha [4]: 80% | pest or weed control at 500 g/ha [5]: 100% | pest or weed control at 500 g/ha [6]: 60%

O=C(O)CC[n+]1ccc(C(=O)NC2CC2(F)F)cn1 (stereo not drawn) [Compound A95]
pest or weed control at 500 g/ha [1]: 100% | pest or weed control at 500 g/ha [2]: 100% | pest or weed control at 500 g/ha (Lolium perenne (LOLPE)): 60% | pest or weed control at 500 g/ha [3]: 100% | pest or weed control at 500 g/ha (Setaria faberi (SETFA)): 100% | pest or weed control at 500 g/ha (Eleusine indica (ELEIN)): 100% | pest or weed control at 500 g/ha [4]: 80% | pest or weed control at 500 g/ha [5]: 100% | pest or weed control at 500 g/ha [6]: 60%

N#Cc1ccc(CNC(=O)c2cc[n+](CCC(=O)O)nc2)cc1 [Compound A96]
pest or weed control at 500 g/ha [1]: 100% | pest or weed control at 500 g/ha [2]: 20% | pest or weed control at 500 g/ha (Lolium perenne (LOLPE)): 20% | pest or weed control at 500 g/ha [3]: 100% | pest or weed control at 500 g/ha (Setaria faberi (SETFA)): 30% | pest or weed control at 500 g/ha (Eleusine indica (ELEIN)): 50% | pest or weed control at 500 g/ha [4]: 20% | pest or weed control at 500 g/ha [5]: 80% | pest or weed control at 500 g/ha [6]: 40%

O=C(O)CC[n+]1ccc(C(=O)NCC(F)(F)C(F)(F)F)cn1 [Compound A97]
pest or weed control at 500 g/ha [1]: 100% | pest or weed control at 500 g/ha [2]: 90% | pest or weed control at 500 g/ha (Lolium perenne (LOLPE)): 90% | pest or weed control at 500 g/ha [3]: 90% | pest or weed control at 500 g/ha (Setaria faberi (SETFA)): 90% | pest or weed control at 500 g/ha (Eleusine indica (ELEIN)): 60% | pest or weed control at 500 g/ha [4]: 60% | pest or weed control at 500 g/ha [5]: 100% | pest or weed control at 500 g/ha [6]: 30%

O=C(O)CC[n+]1ccc(C(=O)NCc2ccc(C(F)(F)F)cc2)cn1 [Compound A98]
pest or weed control at 500 g/ha [1]: 90% | pest or weed control at 500 g/ha [2]: 60% | pest or weed control at 500 g/ha (Lolium perenne (LOLPE)): 0% | pest or weed control at 500 g/ha [3]: 100% | pest or weed control at 500 g/ha (Setaria faberi (SETFA)): 30% | pest or weed control at 500 g/ha (Eleusine indica (ELEIN)): 90% | pest or weed control at 500 g/ha [4]: 50% | pest or weed control at 500 g/ha [5]: 70% | pest or weed control at 500 g/ha [6]: 20%

CC1(NC(=O)c2cc[n+](CCNS(=O)(=O)[O-])nc2)CC1 [Compound A99]
pest or weed control at 500 g/ha [1]: 50% | pest or weed control at 500 g/ha [2]: 100% | pest or weed control at 500 g/ha (Lolium perenne (LOLPE)): 40% | pest or weed control at 500 g/ha [3]: 40% | pest or weed control at 500 g/ha (Setaria faberi (SETFA)): 90% | pest or weed control at 500 g/ha (Eleusine indica (ELEIN)): 70% | pest or weed control at 500 g/ha [4]: 60% | pest or weed control at 500 g/ha [5]: 40% | pest or weed control at 500 g/ha [6]: 30%

CC(C)(CO)NC(=O)c1cc[n+](CCC(=O)O)nc1 [Compound A100]
pest or weed control at 500 g/ha [1]: 60% | pest or weed control at 500 g/ha [2]: 70% | pest or weed control at 500 g/ha (Lolium perenne (LOLPE)): 50% | pest or weed control at 500 g/ha [3]: 30% | pest or weed control at 500 g/ha (Setaria faberi (SETFA)): 90% | pest or weed control at 500 g/ha (Eleusine indica (ELEIN)): 40% | pest or weed control at 500 g/ha [4]: 60% | pest or weed control at 500 g/ha [5]: 20% | pest or weed control at 500 g/ha [6]: 20%

CC1CC1NC(=O)c1cc[n+](CCC(=O)O)nc1 (stereo not drawn) [Compound A101]
pest or weed control at 500 g/ha [1]: 100% | pest or weed control at 500 g/ha [2]: 100% | pest or weed control at 500 g/ha (Lolium perenne (LOLPE)): 80% | pest or weed control at 500 g/ha [3]: 50% | pest or weed control at 500 g/ha (Setaria faberi (SETFA)): 90% | pest or weed control at 500 g/ha (Eleusine indica (ELEIN)): 70% | pest or weed control at 500 g/ha [4]: 90% | pest or weed control at 500 g/ha [5]: 100% | pest or weed control at 500 g/ha [6]: 50%
